Biological target: T1, human S1P1 receptors (Homo sapiens, UniProt P21453)
T1 construct: host or cells: HEK293
Test: S1P1R antagonist assay (fluorescent membrane potential dye, cAMP readout)
Format: cell-based
Conditions: HEK293 cells expressing human S1P1 receptors and CNG channel; 500 nM NECA; S1P1R agonist 10 nM; 90 minutes; read-out: EC50 or IC50 value

T1 sequence (P21453 whole entry): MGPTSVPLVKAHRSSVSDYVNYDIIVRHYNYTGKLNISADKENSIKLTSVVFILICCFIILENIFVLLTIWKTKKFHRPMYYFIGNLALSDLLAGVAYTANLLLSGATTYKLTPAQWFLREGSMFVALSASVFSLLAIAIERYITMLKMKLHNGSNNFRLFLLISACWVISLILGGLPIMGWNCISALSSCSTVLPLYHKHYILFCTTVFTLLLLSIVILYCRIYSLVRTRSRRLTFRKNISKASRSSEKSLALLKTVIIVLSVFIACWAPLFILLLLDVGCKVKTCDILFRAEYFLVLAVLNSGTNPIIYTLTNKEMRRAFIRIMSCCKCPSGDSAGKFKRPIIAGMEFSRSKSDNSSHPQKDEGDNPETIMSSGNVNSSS

Row | SMILES | IC50
1 | O=C(Cc1cncnc1)N[C@@H](COCc1ccccc1)C(=O)Nc1ccc(Oc2ccc(F)cc2)cc1 [Compound 250, (S)-3-(benzyloxy)-N-(4-(4-fluorophenoxy)phenyl)-2-(2-(pyrimidin-5-yl)acetamido)propanamide] | ≤ 300 nM
2 | O=C(Nc1ccc(Oc2ccc(F)cc2)cc1)[C@@H]1C[C@@H](Cc2ccccc2)CN1C(=O)Cc1c(F)ccc(F)c1F [Compound 84, (2S,4R)-4-benzyl-N-(4-(4-fluorophenoxy)phenyl)-1-(2-(2,3,6-trifluorophenyl)acetyl)pyrrolidine-2-carboxamide] | ≤ 300 nM
3 | Cc1cc(CC(=O)N[C@@H](COCc2ccccc2)C(=O)Nc2ccc(Oc3ccc(F)cc3)cc2)[nH]n1 [Compound 166, (S)-3-(benzyloxy)-N-(4-(4-fluorophenoxy)phenyl)-2-(2-(3-methyl-1H-pyrazol-5-yl)acetamido)propanamide] | ≤ 300 nM
4 | O=C(Cn1cncn1)N[C@@H](COCc1ccccc1)C(=O)Nc1ccc(Oc2ccc(F)cc2)cc1 [Compound 149, (S)-2-(2-(1H-1,2,4-triazol-1-yl)acetamido)-3-benzyloxy-N-(4-(4-fluorophenoxy)phenyl)propanamide] | ≤ 300 nM
5 | Cc1cc(F)ccc1Oc1ccc(NC(=O)[C@@H]2C[C@@H](Cc3ccc(F)cc3)CN2C(=O)Cn2cncn2)cc1 [Compound 74, (2S,4R)-1-(2-(1H-1,2,4-triazol-1-yl)acetyl)-N-(4-(4-fluoro-2-methylphenoxy)phenyl)-4-(4-fluorobenzyl)pyrrolidine-2-carboxamide] | ≤ 300 nM
6 | O=C(Cc1c[nH]cn1)N[C@@H](COCc1ccccc1)C(=O)Nc1ccc(Oc2ncc(Br)s2)cc1 [Compound 156, (S)-2-(2-(1H-imidazol-4-yl)acetamido)-3-(benzyloxy)-N-(4-(5-bromothiazol-2-yloxy)phenyl)propanamide] | ≤ 300 nM
7 | O=C(Cc1c[nH]cn1)N[C@@H](COCc1ccccc1)c1nc2cc(Oc3ccc(F)cc3)ccc2[nH]1 [Compound 59, (R)—N-(2-(benzyloxy)-1-(5-(4-fluorophenoxy)-1H-benzo[d]imidazol-2-yl)ethyl)-2-(1H-imidazol-4-yl)acetamide] | 300 to 1000 nM
8 | Cc1cc(CC(=O)NC(COCc2ccccc2)C(=O)Nc2ccc(Oc3ccccc3)cc2)on1 (stereo not shown) [Compound 185, 2-(2-(3-methylisoxazol-5-yl)acetamido)-3-benzyloxy-N-(4-phenoxyphenyl)propanamide] | ≤ 300 nM
9 | O=C(NC(COCc1ccccc1)C(=O)Nc1ccc(Oc2ccccc2)cc1)c1cccc(O)n1 (stereo not shown) [Compound 358, 6-hydroxy-N-(2-oxo-1-{[(phenylmethyl)oxy]methyl}-2-{[4-(phenyloxy)phenyl]amino}ethyl)pyridine-2-carboxamide] | > 1000 nM
10 | O=C(Cc1cnc[nH]1)N[C@@H](COCc1ccccc1)C(=O)Nc1ccc(Cc2ccccc2)cc1 [Compound 200, (S)-2-(2-(1H-imidazol-4-yl)acetamido)-3-(benzyloxy)-N-(4-benzylphenyl)propanamide] | ≤ 300 nM
11 | O=C(Cc1c[nH]cn1)N[C@@H](COCc1ccccc1)C(=O)Nc1ccc(Oc2ccc(F)cc2)cc1 [Compound 131, (S)-2-(2-(1H-imidazol-5-yl)acetamido)-3-benzyloxy-N-(4-(4-fluorophenoxy)phenyl)propanamide] | ≤ 300 nM
12 | CN1CCCC1CC1CCCCN1CC(=O)N[C@@H](COCc1ccccc1)C(=O)Nc1ccc(Oc2ccc(F)cc2)cc1 (stereo in doubt) [Compound 113, (2S)-3-(benzyloxy)-N-(4-(4-fluorophenoxy)phenyl)-2-(2-(2-(((S)-1-methylpyrrolidin-2-yl)methyl)piperidin-1-yl)acetamido)propanamide] | > 1000 nM
13 | O=C(CN1CCCCCC1)N[C@@H](COCc1ccccc1)C(=O)Nc1ccc(Oc2ccc(F)cc2)cc1 [Compound 128, (S)-2-(2-(azepan-1-yl)acetamido)-3-(benzyloxy)-N-(4-(4-fluorophenoxy)phenyl)propanamide] | > 1000 nM
14 | O=C(NC(COCc1ccccc1)C(=O)Nc1ccc(Oc2ccccc2)cc1)c1sc2ccccc2c1Cl (stereo not shown) [Compound 297, 3-chloro-N-(2-oxo-1-{[(phenylmethyl)oxy]methyl}-2-{[4-(phenyloxy)phenyl]amino}ethyl)-1-benzothiophene-2-carboxamide] | > 1000 nM
15 | CC(=O)O[C@@H](C)C(=O)NC(COCc1ccccc1)C(=O)Nc1ccc(Oc2ccccc2)cc1 (stereo partly drawn) [Compound 25, (2S)-1-(3-(benzyloxy)-1-oxo-1-(4-phenoxyphenylamino)propan-2-ylamino)-1-oxopropan-2-yl acetate] | > 1000 nM
16 | CS(=O)(=O)c1ccc(C(=O)NC(COCc2ccccc2)C(=O)Nc2ccc(Oc3ccccc3)cc2)cc1 (stereo not shown) [Compound 333, 4-(methylsulfonyl)-N-(2-oxo-1-{[(phenylmethyl)oxy]methyl}-2-{[4-(phenyloxy)phenyl]amino}ethyl)benzamide] | > 1000 nM
17 | CSCCC(=O)N1C[C@H](Cc2ccccc2)C[C@H]1C(=O)Nc1ccc(Oc2ccc(F)cc2)cc1 [Compound 85, (2S,4R)-4-benzyl-N-(4-(4-fluorophenoxy)phenyl)-1-(3-(methylthio)propanoyl)pyrrolidine-2-carboxamide] | ≤ 300 nM
18 | CC(C(=O)N[C@@H](COCc1ccccc1)C(=O)Nc1ccc(Oc2ccc(F)cc2)cc1)c1c[nH]cn1 (stereo partly drawn) [Compound 167, (2S)-2-(2-(1H-imidazol-4-yl)propanamido)-3-(benzyloxy)-N-(4-(4-fluorophenoxy)phenyl)propanamide] | ≤ 300 nM

The remaining lines, values ahead:

Row | IC50 | SMILES
19 | > 1000 nM | O=C(Cc1ccc2c(c1)OCO2)NC(COCc1ccccc1)C(=O)Nc1ccc(Oc2ccccc2)cc1 (stereo not shown) [Compound 328, N-(2-oxo-1-{[(phenylmethyl)oxy]methyl}-2-{[4-(phenyloxy)phenyl]amino}ethyl)-1,3-benzodioxol-5-ylacetamide]
20 | > 1000 nM | CCOCCC(=O)NC(COCc1ccccc1)C(=O)Nc1ccc(Oc2ccccc2)cc1 (stereo not shown) [Compound 376, N-(2-oxo-1-{[(phenylmethyl)oxy]methyl}-2-{[4-(phenyloxy)phenyl]amino}ethyl)-3-ethoxypropanamide]
21 | ≤ 300 nM | O=C(CCc1cnc[nH]1)N[C@@H](COCc1ccccc1)C(=O)Nc1ccc(Oc2ccc(F)cc2)cc1 [Compound 207, (S)-2-(3-(1H-imidazol-5-yl)propanamido)-3-(benzyloxy)-N-(4-(4-fluorophenoxy)phenyl)propanamide]
22 | 300 to 1000 nM | CN(CC(=O)N[C@@H](COCc1ccccc1)C(=O)Nc1ccc(Oc2ccccc2)cc1)C(=O)c1ccccc1 [Compound 194, (S)-2-{2-((benzoyl)(methyl)amino)acetamido}-3-benzyloxy-N-(4-phenoxyphenyl)propanamide]
23 | 300 to 1000 nM | O=C(CCC(=O)c1ccccc1)NC(COCc1ccccc1)C(=O)Nc1ccc(Oc2ccccc2)cc1 (stereo not shown) [Compound 349, 4-oxo-N-(2-oxo-1-{[(phenylmethyl)oxy]methyl}-2-{[4-(phenyloxy)phenyl]amino}ethyl)-4-phenylbutanamide]
24 | > 1000 nM | CS(=O)(=O)c1ccc(C(=O)NC(COCc2ccccc2)C(=O)Nc2ccc(Oc3ccccc3)cc2)c(Cl)c1 (stereo not shown) [Compound 334, 2-chloro-4-(methylsulfonyl)-N-(2-oxo-1-{[(phenylmethyl)oxy]methyl}-2-{[4-(phenyloxy)phenyl]amino}ethyl)benzamide]
25 | > 1000 nM | O=C(Nc1ccc(Oc2ccccc2)cc1)C(COCc1ccccc1)NC(=O)C1(c2c(F)cccc2Cl)CCCC1 (stereo not shown) [Compound 329, 1-(2-chloro-6-fluorophenyl)-N-(2-oxo-1-{[(phenylmethyl)oxy]methyl}-2-{[4-(phenyloxy)phenyl]amino}ethyl)cyclopentanecarboxamide]
26 | ≤ 300 nM | O=C(CN1CCN(Cc2c(F)cccc2Cl)CC1)N[C@@H](COCc1ccccc1)C(=O)Nc1ccc(Oc2ccc(F)cc2)cc1 [Compound 239, (S)-3-(benzyloxy)-2-(2-(4-(2-chloro-6-fluorobenzyl)piperazin-1-yl)acetamido)-N-(4-(4-fluorophenoxy)phenyl)propanamide]
27 | ≤ 300 nM | CC(C)(C(=O)N[C@@H](COCc1ccccc1)C(=O)Nc1ccc(Oc2ccc(F)cc2)cc1)c1c[nH]cn1 [Compound 213, (S)-2-(2-(1H-imidazol-4-yl)-2-methylpropanamido)-3-(benzyloxy)-N-(4-(4-fluorophenoxy)phenyl)propanamide]
28 | > 1000 nM | C=CCCC(=O)NC(COCc1ccccc1)C(=O)Nc1ccc(Oc2ccccc2)cc1 (stereo not shown) [Compound 298, N-(2-oxo-1-{[(phenylmethyl)oxy]methyl}-2-{[4-(phenyloxy)phenyl]amino}ethyl)pent-4-enamide]
29 | ≤ 300 nM | CN(C)C(=O)CCC(=O)N1C[C@H](Cc2ccccc2)C[C@H]1C(=O)Nc1ccc(Oc2ccc(F)cc2)cc1 [Compound 89, (2S,4R)-4-benzyl-1-(4-(dimethylamino)-4-oxobutanoyl)-N-(4-(4-fluorophenoxy)phenyl)pyrrolidine-2-carboxamide]
30 | ≤ 300 nM | O=C(Nc1ccc(Oc2ccc(F)cc2)cc1)[C@@H]1C[C@@H](Cc2ccccc2)CN1C(=O)CCCc1ccc2c(c1)OCCO2 [Compound 33, (2S,4R)-4-benzyl-1-(4-(2,3-dihydrobenzo[b][1,4]dioxin-6-yl)butanoyl)-N-(4-(4-fluorophenoxy)phenyl)pyrrolidine-2-carboxamide]
31 | 300 to 1000 nM | O=C(Cc1cccc(Cl)c1)NC(COCc1ccccc1)C(=O)Nc1ccc(Oc2ccccc2)cc1 (stereo not shown) [Compound 377, N-(2-oxo-1-{[(phenylmethyl)oxy]methyl}-2-{[4-(phenyloxy)phenyl]amino}ethyl)-2-(3-chlorophenyl)acetamide]
32 | > 1000 nM | CC(=O)CCCC(=O)NC(COCc1ccccc1)C(=O)Nc1ccc(Oc2ccccc2)cc1 (stereo not shown) [Compound 310, 5-oxo-N-(2-oxo-1-{[(phenylmethyl)oxy]methyl}-2-{[4-(phenyloxy)phenyl]amino}ethyl)hexanamide]
33 | ≤ 300 nM | O=C(Nc1ccc(Oc2ccc(F)cc2)cc1)[C@@H]1C[C@@H](Cc2ccccc2)CN1C(=O)CO [Compound 120, (2S,4R)-4-benzyl-N-(4-(4-fluorophenoxy)phenyl)-1-(2-hydroxyacetyl)pyrrolidine-2-carboxamide]
34 | 300 to 1000 nM | CC(C)CC(=O)N[C@@H](COCc1ccccc1)C(=O)Nc1ccc(Oc2ccc(F)cc2)cc1 [Compound 233, (S)—N-(3-(benzyloxy)-1-(4-(4-fluorophenoxy)phenylamino)-1-oxopropan-2-yl)-3-methylbutanamide]
